Data as given in ChEMBL document CHEMBL1201862, “PubChem BioAssay data set” (2004).
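Test compounds were applied to cells in 96-well plates for 48 hours at 5 doses. At the GI50, growth is halved.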 Active and inactive are the calls of the source. Cut-off read from the data, not from the text of the source: active = GI50 up to about 1.1 µM and inactive = higher.

What was measured:
Assay in all cases: growth of human tumour cells (NCI), 48 h
SR = system: SR
COLO 205 = system: COLO 205
SK-OV-3 = system: SK-OV-3
SF-268 = system: SF-268
HOP-92 = system: HOP-92
NCI-H23 = system: NCI-H23
786-0 = system: 786-0
SK-MEL-28 = system: SK-MEL-28
RXF 393 = system: RXF 393
KM12 = system: KM12
PC-3 = system: PC-3
NCI-H226 = system: NCI-H226
UACC-257 = system: UACC-257
NCI-H460 = system: NCI-H460
NCI-H522 = system: NCI-H522
HL-60 = system: HL-60
T47D = system: T47D
DU-145 = system: DU-145
SNB-75 = system: SNB-75
OVCAR-8 = system: OVCAR-8
SF-295 = system: SF-295
M14 = system: M14
MDA-N = system: MDA-N
EKVX = system: EKVX
A549 = system: A549
CCRF-CEM = system: CCRF-CEM
SK-MEL-5 = system: SK-MEL-5
K562 = system: K562
SNB-19 = system: SNB-19
HCT-15 = system: HCT-15
ACHN = system: ACHN
MDA-MB-231 = system: MDA-MB-231
OVCAR-3 = system: OVCAR-3
U-251 = system: U-251
Hs-578T = system: Hs-578T
SW-620 = system: SW-620
MDA-MB-435 = system: MDA-MB-435
IGROV-1 = system: IGROV-1
OVCAR-4 = system: OVCAR-4
HCC 2998 = system: HCC 2998
HCT-116 = system: HCT-116
NCI/ADR-RES = system: NCI/ADR-RES
SF-539 = system: SF-539
HOP-62 = system: HOP-62
MCF7 = system: MCF7
RPMI-8226 = system: RPMI-8226
Malme-3M = system: Malme-3M
HT-29 = system: HT-29
UO-31 = system: UO-31
MOLT-4 = system: MOLT-4
TK-10 = system: TK-10
SN12C = system: SN12C
UACC-62 = system: UACC-62
LOX IMVI = system: LOX IMVI
SK-MEL-2 = system: SK-MEL-2
OVCAR-5 = system: OVCAR-5
CAKI-1 = system: CAKI-1
A498 = system: A498

`Cn1c2c(c3ccccc31)CCN1C(=O)CN(C(=O)C3CCCCC3)CC21` (stereo not given) was tested, and the GI50 (SR) was > 100 µM (inactive), the GI50 (COLO 205) was > 100 µM (inactive) and the GI50 (SK-OV-3) was > 100 µM (inactive). The GI50 (SF-268) was > 100 µM (inactive), the GI50 (HOP-92) was > 100 µM (inactive) and the GI50 (NCI-H23) was > 100 µM (inactive). For the same compound, the GI50 (786-0) was > 100 µM (inactive), the GI50 (SK-MEL-28) was > 100 µM (inactive) and the GI50 (RXF 393) was > 100 µM (inactive). The GI50 (KM12) was > 100 µM (inactive), the GI50 (PC-3) was > 100 µM (inactive) and the GI50 (NCI-H226) was > 100 µM (inactive). The GI50 (UACC-257) was > 100 µM (inactive), the GI50 (NCI-H460) was > 100 µM (inactive) and the GI50 (NCI-H522) was > 100 µM (inactive). For the same compound, the GI50 (HL-60) was > 100 µM (inactive), the GI50 (T47D) was > 100 µM (inactive) and the GI50 (DU-145) was > 100 µM (inactive). For the same compound, the GI50 (SNB-75) was > 100 µM (inactive), the GI50 (OVCAR-8) was > 100 µM (inactive) and the GI50 (SF-295) was > 100 µM (inactive). The GI50 (M14) was > 100 µM (inactive), the GI50 (MDA-N) was > 100 µM (inactive) and the GI50 (EKVX) was > 100 µM (inactive). For the same compound, the GI50 (A549) was > 100 µM (inactive), the GI50 (CCRF-CEM) was > 100 µM (inactive) and the GI50 (SK-MEL-5) was > 100 µM (inactive). The GI50 (K562) was > 100 µM (inactive), the GI50 (SNB-19) was > 100 µM (inactive) and the GI50 (HCT-15) was > 100 µM. For the same compound, the GI50 (ACHN) was > 100 µM (inactive), the GI50 (MDA-MB-231) was > 100 µM (inactive) and the GI50 (OVCAR-3) was > 100 µM (inactive). For the same compound, the GI50 (U-251) was > 100 µM (inactive), the GI50 (Hs-578T) was > 100 µM (inactive) and the GI50 (SW-620) was > 100 µM (inactive). For the same compound, the GI50 (MDA-MB-435) was > 100 µM (inactive), the GI50 (IGROV-1) was > 100 µM (inactive) and the GI50 (OVCAR-4) was > 100 µM (inactive). For the same compound, the GI50 (HCC 2998) was > 100 µM (inactive), the GI50 (HCT-116) was > 100 µM (inactive) and the GI50 (NCI/ADR-RES) was > 100 µM (inactive). The GI50 (SF-539) was > 100 µM (inactive), the GI50 (HOP-62) was > 100 µM (inactive) and the GI50 (MCF7) was > 100 µM (inactive). The GI50 (RPMI-8226) was > 100 µM (inactive), the GI50 (Malme-3M) was > 100 µM (inactive) and the GI50 (HT-29) was > 100 µM (inactive). The GI50 (UO-31) was > 100 µM (inactive), the GI50 (MOLT-4) was > 100 µM (inactive) and the GI50 (TK-10) was > 100 µM (inactive). For the same compound, the GI50 (SN12C) was > 100 µM (inactive), the GI50 (UACC-62) was > 100 µM (inactive) and the GI50 (LOX IMVI) was > 100 µM (inactive). For the same compound, the GI50 (SK-MEL-2) was > 100 µM (inactive) and the GI50 (OVCAR-5) was > 100 µM (inactive).
With `S=C(/C=C1\SC(=N\c2ccccc2)/C(=N/c2ccccc2)N1c1ccccc1)Nc1ccccc1` the GI50 (SR) was > 100 µM (inactive), the GI50 (COLO 205) was > 100 µM (inactive) and the GI50 (SK-OV-3) was 67.3 µM (inactive). For the same compound, the GI50 (HOP-92) was > 100 µM (inactive), the GI50 (NCI-H23) was > 100 µM (inactive) and the GI50 (SK-MEL-28) was > 100 µM (inactive). For the same compound, the GI50 (CAKI-1) was > 100 µM (inactive), the GI50 (KM12) was > 100 µM (inactive) and the GI50 (PC-3) was > 100 µM (inactive). For the same compound, the GI50 (NCI-H460) was > 100 µM (inactive), the GI50 (NCI-H522) was > 100 µM (inactive) and the GI50 (HL-60) was > 100 µM (inactive). The GI50 (T47D) was > 100 µM (inactive), the GI50 (DU-145) was > 100 µM (inactive) and the GI50 (SNB-75) was > 100 µM (inactive). For the same compound, the GI50 (OVCAR-8) was > 100 µM (inactive), the GI50 (SF-295) was > 100 µM (inactive) and the GI50 (M14) was > 100 µM (inactive). For the same compound, the GI50 (MDA-N) was > 100 µM (inactive), the GI50 (CCRF-CEM) was 3.66 µM (inactive) and the GI50 (SK-MEL-5) was > 100 µM (inactive). For the same compound, the GI50 (HCT-15) was > 100 µM, the GI50 (MDA-MB-231) was > 100 µM (inactive) and the GI50 (OVCAR-3) was > 100 µM (inactive). The GI50 (U-251) was > 100 µM (inactive), the GI50 (Hs-578T) was > 100 µM (inactive) and the GI50 (MDA-MB-435) was > 100 µM (inactive). For the same compound, the GI50 (IGROV-1) was > 100 µM (inactive), the GI50 (HCT-116) was > 100 µM (inactive) and the GI50 (NCI/ADR-RES) was > 100 µM (inactive). For the same compound, the GI50 (HOP-62) was > 100 µM (inactive), the GI50 (A498) was > 100 µM (inactive) and the GI50 (RPMI-8226) was > 100 µM (inactive). The GI50 (Malme-3M) was > 100 µM (inactive), the GI50 (HT-29) was > 100 µM (inactive) and the GI50 (MOLT-4) was 15.2 µM (inactive). For the same compound, the GI50 (SN12C) was > 100 µM (inactive), the GI50 (UACC-62) was 51.6 µM (inactive) and the GI50 (SK-MEL-2) was > 100 µM (inactive).
In the case of `C/C(=C\CCC1=CC(=O)OC1)CCC1C2C(=O)CC(C)[C@@]3(C)CC[C@]1(C)[C@@]23C` (stereo not given in full), the GI50 (SR) is reported as 6.62 µM (inactive), the GI50 (COLO 205) is reported as > 10 µM (inactive) and the GI50 (SK-OV-3) is reported as > 10 µM (inactive). The GI50 (SF-268) was > 10 µM (inactive), the GI50 (NCI-H23) was > 10 µM (inactive) and the GI50 (786-0) was > 10 µM (inactive). For the same compound, the GI50 (SK-MEL-28) was > 10 µM (inactive), the GI50 (CAKI-1) was > 10 µM (inactive) and the GI50 (RXF 393) was > 10 µM (inactive). For the same compound, the GI50 (KM12) was > 10 µM (inactive), the GI50 (PC-3) was > 10 µM (inactive) and the GI50 (UACC-257) was > 10 µM (inactive). The GI50 (HL-60) was 5.85 µM (inactive), the GI50 (T47D) was > 10 µM (inactive) and the GI50 (DU-145) was > 10 µM (inactive). For the same compound, the GI50 (SNB-75) was > 10 µM (inactive), the GI50 (OVCAR-8) was > 10 µM (inactive) and the GI50 (SF-295) was > 10 µM (inactive). The GI50 (M14) was > 10 µM (inactive), the GI50 (MDA-N) was > 10 µM (inactive) and the GI50 (EKVX) was > 10 µM (inactive). The GI50 (A549) was > 10 µM (inactive), the GI50 (CCRF-CEM) was > 10 µM (inactive) and the GI50 (SK-MEL-5) was > 10 µM (inactive). The GI50 (K562) was 9.44 µM (inactive), the GI50 (HCT-15) was > 10 µM and the GI50 (MDA-MB-231) was > 10 µM (inactive). The GI50 (SW-620) was > 10 µM (inactive), the GI50 (IGROV-1) was > 10 µM (inactive) and the GI50 (HCC 2998) was > 10 µM (inactive). The GI50 (HOP-62) was > 10 µM (inactive), the GI50 (MCF7) was > 10 µM (inactive) and the GI50 (RPMI-8226) was > 10 µM (inactive). The GI50 (Malme-3M) was > 10 µM (inactive), the GI50 (HT-29) was > 10 µM (inactive) and the GI50 (MOLT-4) was > 10 µM (inactive). The GI50 (TK-10) was > 10 µM (inactive), the GI50 (SN12C) was > 10 µM (inactive) and the GI50 (UACC-62) was > 10 µM (inactive). The GI50 (LOX IMVI) was > 10 µM (inactive).
